Results published in ChEMBL document CHEMBL1201862, “PubChem BioAssay data set” (2004).
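Five compound concentrations were applied to cells in 96-well plates for 48 hours; endpoints were derived by simple linear interpolation of the resulting dose-response curve. At the GI50, growth is halved.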 Active and inactive are the calls of the source. Cut-off read from the data, not from the text of the source: active = GI50 up to about 1.1 µM and inactive = higher.

What was measured:
Test in all cases: growth of human tumour cells (NCI), 48 h
SN12C = tested on: SN12C
CCRF-CEM = tested on: CCRF-CEM
KM12 = tested on: KM12
RPMI-8226 = tested on: RPMI-8226
HCT-116 = tested on: HCT-116
NCI-H226 = tested on: NCI-H226
SK-MEL-5 = tested on: SK-MEL-5
HCC 2998 = tested on: HCC 2998
NCI-H460 = tested on: NCI-H460
OVCAR-3 = tested on: OVCAR-3
SR = tested on: SR
786-0 = tested on: 786-0
HOP-62 = tested on: HOP-62
SK-MEL-2 = tested on: SK-MEL-2
SF-539 = tested on: SF-539

Measured: GI50

COc1ccc(C2=NN(c3ccccc3)C[N+](c3ccc(OC)cc3)=N2)cc1
inactive: SN12C 54.1 µM | CCRF-CEM 23.2 µM | KM12 21.3 µM | RPMI-8226 23.2 µM | HCT-116 33.7 µM | NCI-H226 15.7 µM | SK-MEL-5 14.7 µM | HCC 2998 37.8 µM | NCI-H460 47.5 µM | OVCAR-3 22 µM | SR 34 µM | 786-0 49.9 µM | HOP-62 66.1 µM

O=C(Cc1ccccc1)NN1C(=O)C(Cl)C1c1ccc([N+](=O)[O-])cc1 (configuration not stated)
inactive: SN12C 96.4 µM | CCRF-CEM > 10 µM | KM12 > 100 µM | RPMI-8226 23.5 µM | HCT-116 > 100 µM | NCI-H226 > 100 µM | SK-MEL-5 49.1 µM | HCC 2998 > 100 µM | NCI-H460 > 100 µM | OVCAR-3 > 100 µM | SK-MEL-2 > 100 µM | SR 32.7 µM | 786-0 > 100 µM | HOP-62 > 100 µM

Nc1nnc(N)n1N
inactive: CCRF-CEM > 100 µM | KM12 > 100 µM | RPMI-8226 > 100 µM | HCT-116 > 100 µM | NCI-H226 > 100 µM | SK-MEL-5 > 100 µM | HCC 2998 > 100 µM | NCI-H460 > 100 µM | SK-MEL-2 > 100 µM | SR > 100 µM | 786-0 > 100 µM | SF-539 > 100 µM | HOP-62 > 100 µM

COc1ccc(/C(=N/NC(N)=O)C2(O)C(=O)Nc3ccc([N+](=O)[O-])cc32)cc1 (configuration not stated)
inactive: SN12C > 10 µM | CCRF-CEM 11.6 µM | KM12 22.6 µM | RPMI-8226 25.6 µM | HCT-116 14.9 µM | NCI-H226 45.7 µM | SK-MEL-5 27.3 µM | HCC 2998 37.3 µM | NCI-H460 19.3 µM | OVCAR-3 18.1 µM | SK-MEL-2 21.6 µM | SR 17.4 µM | 786-0 15.7 µM | SF-539 15.7 µM | HOP-62 28.2 µM

COC(=O)C(Cc1nc2ccc(Cl)cc2nc1O)/C(=N/NC(N)=O)C(=O)Nc1ccc(Cl)cc1 (configuration not stated)
inactive: SN12C > 100 µM | CCRF-CEM > 100 µM | KM12 > 100 µM | RPMI-8226 > 100 µM | HCT-116 > 100 µM | NCI-H226 > 100 µM | SK-MEL-5 > 100 µM | HCC 2998 > 100 µM | NCI-H460 > 100 µM | OVCAR-3 > 100 µM | SK-MEL-2 > 100 µM | SR > 100 µM | 786-0 > 100 µM | SF-539 > 100 µM | HOP-62 > 100 µM

Cc1c(C(=O)CC(=O)C(=O)Nc2ccccc2C(F)(F)F)[n+]([O-])c2ccccc2[n+]1[O-]
inactive: SN12C 22.2 µM | CCRF-CEM 18.6 µM | KM12 19.5 µM | RPMI-8226 4.69 µM | HCT-116 14.7 µM | NCI-H226 > 100 µM | SK-MEL-5 16.3 µM | HCC 2998 13.4 µM | NCI-H460 21.3 µM | OVCAR-3 2.63 µM | SK-MEL-2 19.8 µM | SR 2.09 µM | 786-0 33.6 µM | SF-539 23.2 µM | HOP-62 44 µM

O=c1nc(NC(c2ccccc2)(c2ccccc2)c2ccccc2)ccn1CCO
inactive: SN12C 88.7 µM | KM12 60.3 µM | RPMI-8226 49.8 µM | HCT-116 61.1 µM | NCI-H226 > 100 µM | HCC 2998 > 100 µM | NCI-H460 57 µM | OVCAR-3 40.2 µM | SK-MEL-2 > 100 µM | SR 36.3 µM | 786-0 > 100 µM | SF-539 > 100 µM | HOP-62 > 100 µM

CCOC(=O)Cn1c(=O)n(C)c(=O)c2[nH]cnc21
inactive: SN12C > 100 µM | CCRF-CEM > 100 µM | KM12 > 100 µM | RPMI-8226 > 100 µM | HCT-116 > 100 µM | SK-MEL-5 > 100 µM | NCI-H460 > 100 µM | OVCAR-3 > 100 µM | SK-MEL-2 > 100 µM | SR > 100 µM | 786-0 > 100 µM | SF-539 > 100 µM | HOP-62 > 100 µM

CN1N=C2c3ccccc3CC[C@H]2C1c1ccccc1 (some centres not stated)
inactive: SN12C 42.1 µM | CCRF-CEM > 100 µM | KM12 36.9 µM | RPMI-8226 28.6 µM | HCT-116 18 µM | NCI-H226 27.9 µM | HCC 2998 85.7 µM | NCI-H460 28.9 µM | OVCAR-3 41.8 µM | SK-MEL-2 24.5 µM | SR > 100 µM | 786-0 63.5 µM | SF-539 86.5 µM | HOP-62 47.9 µM

Brc1ccc(C[N+]23CN4CN(CN(C4)C2)C3)cc1
inactive: SN12C 24 µM | CCRF-CEM 20.5 µM | KM12 > 100 µM | RPMI-8226 20.4 µM | HCT-116 28.1 µM | HCC 2998 47.1 µM | NCI-H460 28.3 µM | OVCAR-3 73.1 µM | SR > 10 µM | 786-0 30.6 µM | SF-539 40.3 µM | HOP-62 > 100 µM
